Here are results for 3 compounds from patent US20040068015A1, “Remedies for diseases due to stenotic lesions of blood vessel” (priority 2003, published 2004).

Data set [1] relates to smooth muscle cells. The following applies: literature report; cited from earlier work.
The subject of data set [2] is blood vessel smooth muscle cells. Description: Effect to inhibit growth of blood vessel smooth muscle cells (BrdU labeling index), hamster blood vessel stricture model. The format is in vivo. To be noted: oral, twice a day, 20 mg/kg/day; 7th day after the injury. On the procedure:
(§1) Preparation of Hamster Blood Vessel Stricture Model
(§2) Male hamsters (Gold, SLC, Japan; 40 to 50 g) were allowed to feed on 0.5% cholesterol feed for 4 weeks to increase the LDL value to 4 to 6 times higher than that of normal hamsters. Each hamster was anesthetized with pentobarbital (50 mg/kg), and its carotid inner membrane was peeled using 2FG catheter (Portex) whose tip had been roughly shaved.
(2) Effect to Inhibit Growth of Blood Vessel Smooth Muscle Cells
The drug to be tested, N-hydroxy-5-ethoxymethyloxy-2(S)-methyl-4(S)-(4-phenoxybenzoyl)aminopentaneamide represented by the above formula (II), was orally administered once before the blood vessel inner membrane injury, and then it was orally administered twice a day (20 mg/kg/day). 5-Bromo-2-deoxy-uridine (BrdU: 50 mg/kg) was injected by subcutaneous injection 1, 8, 16 or 24 hours before taking out the inner membrane-injured carotid from each hamster.
After the carotid injury, the injured blood vessels were taken out on the 1st and 7th days to prepare frozen samples. BrdU positive cells were stained with a mouse monoclonal antibody (SIGMA) and then with a peroxidase-conjugated goat anti-mouse IgG antibody and detected with diaminobenzidine (DAB). […] The BrdU labeling index of intermediate membrane and newly formed inner membrane was calculated by the following formula: [formula]
(Uptake of a labelled nucleoside into DNA is a usual measure of proliferation.)

Data set [3] can be described thus: Toxicity, single oral administration using rats. The format is in vivo. On the procedure: The toxicity of the compounds of the present invention is very low and therefore, the compounds may be considered safe for pharmaceutical use. For example, the minimal lethal dose by single oral administration of N-hydroxy-5-ethoxymethyloxy-2(S)-methyl-4(S)-(4-phenoxybenzoyl)aminopentanamide using rats was 2000 mg/kg.

In data set [4] the test system is blood vessel smooth muscle cells. Nature of the data set: Effect to inhibit migration of blood vessel smooth muscle cells (histone H1 (+) cells), hamster blood vessel stricture model. The format is in vivo. The following applies: oral, twice a day, 20 mg/kg/day; 3, 5 and 7th days after carotid injury; in comparison with the control group. Here is the method: as §1, §2
(3) Effect to Inhibit Migration of Blood Vessel Smooth Muscle Cells
Administration of the drug to be tested and BrdU was carried out in the same manner in the above (2).
The injured blood vessels were taken out from the hamsters on 3, 5 and 7th days after the carotid injury. Each blood vessel was washed with PBS and put into 0.3% hydrogen peroxide/cold methanol solution. The sample was incubated for 45 minutes in 5% goat serum diluted with 1% BSA-containing PBS to prevent nonselective linkage of protein. This was incubated for 60 minutes in 1% BSA-containing PBS using a histone H1 monoclonal antibody. Thereafter, each section was incubated for 45 minutes using 1% goat anti-mouse IgG antibody diluted with 1% BSA-containing PBS. By measuring the number of histone H1 (+) cells (cells/mm^2), migration of smooth muscle cells from intermediate membrane to inner membrane was evaluated.

For `CNC(=O)[C@H](Cc1ccccc1)NC(=O)[C@H](CC(C)C)[C@H](CSc1cccs1)C(=O)NO` [BB94, 3(S)-(N-hydroxycarbamoyl)-2(R)-isobutyl-4-(2-thienylthio)butynyl-L-phenylalanine methylamide], in data set [1], the “growth of smooth muscle cells” value was “inhibits migration and growth of smooth muscle cells dose-dependently”; the “migration of smooth muscle cells” value is “inhibits migration and growth of smooth muscle cells dose-dependently”.

On to `CNC(=O)[C@H](Cc1c[nH]c2ccccc12)NC(=O)[C@H](CC(=O)NO)CC(C)C` [GM6001, 3-(N-hydroxycarbamoyl)-2(S)-isobutylpropionyl-L-tryptophan methylamide], for which the “migration of smooth muscle cells” value in data set [1] is on record as “inhibits migration of smooth muscle cells”.

With `CCOCOC[C@H](C[C@H](C)C(=O)NO)NC(=O)c1ccc(Oc2ccccc2)cc1` [formula (II), N-hydroxy-5-ethoxymethyloxy-2(S)-methyl-4(S)-(4-phenoxybenzoyl)aminopentaneamide], in data set [2], the “inhibition of growth of blood vessel smooth muscle cells (BrdU labeling index)” value was “significantly inhibited”. For the same compound, in data set [3], the minimal lethal dose was determined as 2000 mg/kg. In data set [4], the “number of smooth muscle cells on the surface of inner membrane (migration; histone H1 (+) cells)” value is “significantly reduced”.
